ChEMBL document CHEMBL3792356, “Discovery of molluscicidal and cercaricidal activities of 3-substituted quinazolinone derivatives by a scaffold hopping approach using a pseudo-ring based on the intramolecular hydrogen bond formation” (Eur J Med Chem, 2016)
Converted amounts (≈) assume the structure as drawn.

Columns and labels:
Schistosoma japonicum = experiment: Cercaricidal activity against Schistosoma japonicum infected in Oncomelania hupensis measured after 120 mins by colour television microscopy; type: functional; details: for LC50: Schistosoma japonicum, 2 h
Oncomelania hupensis = experiment: Molluscicidal activity against Oncomelania hupensis measured after 24 hrs; type: functional; details: for LC50: Oncomelania hupensis, 24 h
[1] = Toxicity in tadpole assessed as lethality at 0.625 ppm measured after 12 hrs; type: organism-based; details: anura, in vivo
[2] = Toxicity in tadpole assessed as lethality at 10 ppm measured after 72 hrs; type: organism-based; details: anura, in vivo
[3] = Toxicity in tadpole assessed as lethality at 2.5 ppm measured after 120 hrs; type: organism-based; details: anura, in vivo
[4] = Toxicity in tadpole assessed as lethality at 2.5 ppm measured after 48 hrs; type: organism-based; details: anura, in vivo
[5] = Toxicity in tadpole assessed as lethality at 0.3125 ppm measured after 120 hrs; type: organism-based; details: anura, in vivo
[6] = Toxicity in tadpole assessed as lethality at 1.25 ppm measured after 120 hrs; type: organism-based; details: anura, in vivo
[7] = Toxicity in tadpole assessed as lethality at 5 ppm measured after 72 hrs; type: organism-based; details: anura, in vivo
[8] = Toxicity in tadpole assessed as lethality at 10 ppm measured after 48 hrs; type: organism-based; details: anura, in vivo
[9] = Toxicity in tadpole assessed as lethality at 5 ppm measured after 120 hrs; type: organism-based; details: anura, in vivo
[10] = Toxicity in tadpole assessed as lethality at 0.625 ppm measured after 24 hrs; type: organism-based; details: anura, in vivo
[11] = Toxicity in tadpole assessed as lethality at 2.5 ppm measured after 96 hrs; type: organism-based; details: anura, in vivo
[12] = Toxicity in tadpole assessed as lethality at 0.625 ppm measured after 120 hrs; type: organism-based; details: anura, in vivo
[13] = Toxicity in tadpole assessed as lethality at 10 ppm measured after 120 hrs; type: organism-based; details: anura, in vivo
[14] = Toxicity in tadpole assessed as lethality at 2.5 ppm measured after 24 hrs; type: organism-based; details: anura, in vivo
[15] = Toxicity in tadpole assessed as lethality at 0.625 ppm measured after 48 hrs; type: organism-based; details: anura, in vivo
[16] = Toxicity in tadpole assessed as lethality at 5 ppm measured after 48 hrs; type: organism-based; details: anura, in vivo
[17] = Toxicity in tadpole assessed as lethality at 1.25 ppm measured after 72 hrs; type: organism-based; details: anura, in vivo
[18] = Toxicity in tadpole assessed as lethality at 0.3125 ppm measured after 96 hrs; type: organism-based; details: anura, in vivo
[19] = Toxicity in tadpole assessed as lethality at 1.25 ppm measured after 48 hrs; type: organism-based; details: anura, in vivo
[20] = Toxicity in tadpole assessed as lethality at 2.5 ppm measured after 12 hrs; type: organism-based; details: anura, in vivo
[21] = Toxicity in tadpole assessed as lethality at 2.5 ppm measured after 72 hrs; type: organism-based; details: anura, in vivo
[22] = Toxicity in tadpole assessed as lethality at 5 ppm measured after 96 hrs; type: organism-based; details: anura, in vivo
[23] = Toxicity in tadpole assessed as lethality at 0.3125 ppm measured after 24 hrs; type: organism-based; details: anura, in vivo
[24] = Toxicity in tadpole assessed as lethality at 10 ppm measured after 24 hrs; type: organism-based; details: anura, in vivo
[25] = Toxicity in tadpole assessed as lethality at 5 ppm measured after 12 hrs; type: organism-based; details: anura, in vivo
[26] = Toxicity in tadpole assessed as lethality at 1.25 ppm measured after 96 hrs; type: organism-based; details: anura, in vivo
[27] = Toxicity in tadpole assessed as lethality at 1.25 ppm measured after 24 hrs; type: organism-based; details: anura, in vivo
[28] = Toxicity in tadpole assessed as lethality at 1.25 ppm measured after 12 hrs; type: organism-based; details: anura, in vivo
[29] = Toxicity in tadpole assessed as lethality at 5 ppm measured after 24 hrs; type: organism-based; details: anura, in vivo
[30] = Toxicity in tadpole assessed as lethality at 0.625 ppm measured after 96 hrs; type: organism-based; details: anura, in vivo
[31] = Toxicity in tadpole assessed as lethality at 10 ppm measured after 96 hrs; type: organism-based; details: anura, in vivo
[32] = Toxicity in tadpole assessed as lethality at 0.3125 ppm measured after 48 hrs; type: organism-based; details: anura, in vivo
[33] = Toxicity in tadpole assessed as lethality at 10 ppm measured after 12 hrs; type: organism-based; details: anura, in vivo
[34] = Toxicity in tadpole assessed as lethality at 0.3125 ppm measured after 12 hrs; type: organism-based; details: anura, in vivo
[35] = Toxicity in tadpole assessed as lethality at 0.3125 ppm measured after 72 hrs; type: organism-based; details: anura, in vivo
[36] = Toxicity in tadpole assessed as lethality at 0.625 ppm measured after 72 hrs; type: organism-based; details: anura, in vivo

Compound: Cc1ccc(-n2cnc3c(Cl)cc(Cl)cc3c2=O)cc1
- LC90 (Schistosoma japonicum): 1.57 ppm
- LC50 (Schistosoma japonicum): 1.19 µg/mL (≈ 3.9 µM)
- LC90 (Oncomelania hupensis): 6.21 ppm
- LC50 (Oncomelania hupensis): 4.71 µg/mL (≈ 15.4 µM)

Compound: COc1ccc(-n2cnc3ccc(Cl)cc3c2=O)cc1
- LC90 (Schistosoma japonicum): 1.23 ppm
- LC50 (Schistosoma japonicum): 0.95 µg/mL (≈ 3.31 µM)
- LC90 (Oncomelania hupensis): 5.01 ppm
- LC50 (Oncomelania hupensis): 3.8 µg/mL (≈ 13.3 µM)

Compound: COc1cc(-n2cnc3c(Cl)cc(Cl)cc3c2=O)cc(OC)c1OC
- LC90 (Schistosoma japonicum): 3.28 ppm
- LC50 (Schistosoma japonicum): 2.49 µg/mL (≈ 6.53 µM)
- LC90 (Oncomelania hupensis): 12.95 ppm
- LC50 (Oncomelania hupensis): 9.95 µg/mL (≈ 26.1 µM)

Compound: O=c1c2cc(Cl)ccc2ncn1C1CCCCC1
- LC90 (Schistosoma japonicum): >50 ppm
- LC50 (Schistosoma japonicum): > 50 µg/mL
- LC90 (Oncomelania hupensis): >100 ppm
- LC50 (Oncomelania hupensis): > 100 µg/mL

Compound: Cc1ccc(-n2cnc3ccc(Cl)cc3c2=O)cc1
- LC90 (Schistosoma japonicum): 1.35 ppm
- LC50 (Schistosoma japonicum): 1.02 µg/mL (≈ 3.77 µM)
- LC90 (Oncomelania hupensis): 5.37 ppm
- LC50 (Oncomelania hupensis): 4.07 µg/mL (≈ 15 µM)

Compound: COc1cc([N+](=O)[O-])ccc1-n1cnc2c(Cl)cc(Cl)cc2c1=O
- LC90 (Schistosoma japonicum): 1.72 ppm
- LC50 (Schistosoma japonicum): 1.31 µg/mL (≈ 3.58 µM)
- LC90 (Oncomelania hupensis): 7.03 ppm
- LC50 (Oncomelania hupensis): 5.34 µg/mL (≈ 14.6 µM)

Compound: NCCO.O=C(Nc1ccc([N+](=O)[O-])cc1Cl)c1cc(Cl)ccc1O
- LC90 (Schistosoma japonicum): <0.1 ppm
- LC50 (Schistosoma japonicum): < 0.1 µg/mL
- LC90 (Oncomelania hupensis): <1 ppm
- LC50 (Oncomelania hupensis): < 1 µg/mL

Compound: COc1ccc(-n2cnc3ccc(Cl)cc3c2=O)c(OC)c1
- LC90 (Schistosoma japonicum): 1.19 ppm
- LC50 (Schistosoma japonicum): 0.91 µg/mL (≈ 2.87 µM)
- LC90 (Oncomelania hupensis): 4.97 ppm
- LC50 (Oncomelania hupensis): 3.78 µg/mL (≈ 11.9 µM)

Compound: CCCn1cnc2ccc(Cl)cc2c1=O
- LC90 (Schistosoma japonicum): >50 ppm
- LC50 (Schistosoma japonicum): > 50 µg/mL
- LC90 (Oncomelania hupensis): >100 ppm
- LC50 (Oncomelania hupensis): > 100 µg/mL

Compound: COc1cc(-n2cnc3ccc(Cl)cc3c2=O)cc(OC)c1OC
- mortality at 12 h, 0.625 ppm [1]: 0%
- mortality at 72 h, 10 ppm [2]: 10%
- mortality at 120 h, 2.5 ppm [3]: 0%
- mortality at 48 h, 2.5 ppm [4]: 0%
- mortality at 120 h, 0.3125 ppm [5]: 0%
- mortality at 120 h, 1.25 ppm [6]: 0%
- mortality at 72 h, 5 ppm [7]: 0%
- mortality at 48 h, 10 ppm [8]: 10%
- mortality at 120 h, 5 ppm [9]: 10%
- mortality at 24 h, 0.625 ppm [10]: 0%
- mortality at 96 h, 2.5 ppm [11]: 0%
- mortality at 120 h, 0.625 ppm [12]: 0%
- mortality at 120 h, 10 ppm [13]: 20%
- mortality at 24 h, 2.5 ppm [14]: 0%
- mortality at 48 h, 0.625 ppm [15]: 0%
- mortality at 48 h, 5 ppm [16]: 0%
- mortality at 72 h, 1.25 ppm [17]: 0%
- mortality at 96 h, 0.3125 ppm [18]: 0%
- mortality at 48 h, 1.25 ppm [19]: 0%
- mortality at 12 h, 2.5 ppm [20]: 0%
- mortality at 72 h, 2.5 ppm [21]: 0%
- mortality at 96 h, 5 ppm [22]: 10%
- mortality at 24 h, 0.3125 ppm [23]: 0%
- mortality at 24 h, 10 ppm [24]: 0%
- mortality at 12 h, 5 ppm [25]: 0%
- mortality at 96 h, 1.25 ppm [26]: 0%
- mortality at 24 h, 1.25 ppm [27]: 0%
- mortality at 12 h, 1.25 ppm [28]: 0%
- mortality at 24 h, 5 ppm [29]: 0%
- mortality at 96 h, 0.625 ppm [30]: 0%
- mortality at 96 h, 10 ppm [31]: 20%
- mortality at 48 h, 0.3125 ppm [32]: 0%
- LC90 (Schistosoma japonicum): 0.89 ppm
- LC50 (Schistosoma japonicum): 0.68 µg/mL (≈ 1.96 µM)
- LC90 (Oncomelania hupensis): 3.55 ppm
- LC50 (Oncomelania hupensis): 2.69 µg/mL (≈ 7.76 µM)
- mortality at 12 h, 10 ppm [33]: 0%
- mortality at 12 h, 0.3125 ppm [34]: 0%
- mortality at 72 h, 0.3125 ppm [35]: 0%
- mortality at 72 h, 0.625 ppm [36]: 0%

Compound: CN(C)c1ccc(-n2cnc3c(Cl)cc(Cl)cc3c2=O)cc1
- LC90 (Schistosoma japonicum): 2.04 ppm
- LC50 (Schistosoma japonicum): 1.55 µg/mL (≈ 4.64 µM)
- LC90 (Oncomelania hupensis): 8.13 ppm
- LC50 (Oncomelania hupensis): 6.17 µg/mL (≈ 18.5 µM)

Compound: O=c1c2cc(Cl)cc(Cl)c2ncn1-c1ccc([N+](=O)[O-])cc1
- LC90 (Schistosoma japonicum): 1.52 ppm
- LC50 (Schistosoma japonicum): 1.15 µg/mL (≈ 3.42 µM)
- LC90 (Oncomelania hupensis): 6.11 ppm
- LC50 (Oncomelania hupensis): 4.65 µg/mL (≈ 13.8 µM)

Compound: O=c1c2cc(Cl)ccc2ncn1-c1ccccc1
- LC90 (Schistosoma japonicum): 1.55 ppm
- LC50 (Schistosoma japonicum): 1.17 µg/mL (≈ 4.56 µM)
- LC90 (Oncomelania hupensis): 6.16 ppm
- LC50 (Oncomelania hupensis): 4.68 µg/mL (≈ 18.2 µM)

Compound: Cc1ccc(-n2cnc3c(Cl)cc(Cl)cc3c2=O)c(C)c1
- LC90 (Schistosoma japonicum): 1.78 ppm
- LC50 (Schistosoma japonicum): 1.35 µg/mL (≈ 4.23 µM)
- LC90 (Oncomelania hupensis): 7.08 ppm
- LC50 (Oncomelania hupensis): 5.37 µg/mL (≈ 16.8 µM)

Compound: COc1ccc(-n2cnc3c(Cl)cc(Cl)cc3c2=O)cc1
- LC90 (Schistosoma japonicum): 3.31 ppm
- LC50 (Schistosoma japonicum): 2.51 µg/mL (≈ 7.82 µM)
- LC90 (Oncomelania hupensis): 13.18 ppm
- LC50 (Oncomelania hupensis): 10 µg/mL (≈ 31.1 µM)

Compound: COc1cc(-n2cnc3ccc([N+](=O)[O-])cc3c2=O)cc(OC)c1OC
- LC90 (Schistosoma japonicum): 1.66 ppm
- LC50 (Schistosoma japonicum): 1.26 µg/mL (≈ 3.53 µM)
- LC90 (Oncomelania hupensis): 6.61 ppm
- LC50 (Oncomelania hupensis): 5.01 µg/mL (≈ 14 µM)

Compound: O=c1c2cc([N+](=O)[O-])ccc2ncn1-c1ccccc1
- LC90 (Schistosoma japonicum): 2.34 ppm
- LC50 (Schistosoma japonicum): 1.78 µg/mL (≈ 6.66 µM)
- LC90 (Oncomelania hupensis): 9.33 ppm
- LC50 (Oncomelania hupensis): 7.07 µg/mL (≈ 26.5 µM)

Compound: COc1ccc(-n2cnc3c(Cl)cc(Cl)cc3c2=O)c(OC)c1
- LC90 (Schistosoma japonicum): 2.15 ppm
- LC50 (Schistosoma japonicum): 1.64 µg/mL (≈ 4.67 µM)
- LC90 (Oncomelania hupensis): 8.62 ppm
- LC50 (Oncomelania hupensis): 6.55 µg/mL (≈ 18.7 µM)

Compound: Cc1ccc(-n2cnc3ccc([N+](=O)[O-])cc3c2=O)cc1
- LC90 (Schistosoma japonicum): 1.91 ppm
- LC50 (Schistosoma japonicum): 1.45 µg/mL (≈ 5.16 µM)
- LC90 (Oncomelania hupensis): 7.58 ppm
- LC50 (Oncomelania hupensis): 5.75 µg/mL (≈ 20.4 µM)

Compound: Cc1ccc(-n2cnc3ccc(Cl)cc3c2=O)c(C)c1
- LC90 (Schistosoma japonicum): 1.45 ppm
- LC50 (Schistosoma japonicum): 1.1 µg/mL (≈ 3.86 µM)
- LC90 (Oncomelania hupensis): 5.75 ppm
- LC50 (Oncomelania hupensis): 4.36 µg/mL (≈ 15.3 µM)

Compound: O=c1c2cc(Cl)cc(Cl)c2ncn1-c1ccccc1
- LC90 (Schistosoma japonicum): 2.19 ppm
- LC50 (Schistosoma japonicum): 1.66 µg/mL (≈ 5.7 µM)
- LC90 (Oncomelania hupensis): 8.71 ppm
- LC50 (Oncomelania hupensis): 6.61 µg/mL (≈ 22.7 µM)
